Target: T1, GluN1/GluN2C receptors (Rattus norvegicus, UniProt P35439+Q00961)
T1 construct: expressed in transfected cells; host or cells: HEK293
Assay: Patch-clamp inhibition of GluN1/GluN2C receptors in transfected HEK293 cells
Format: cell-based
Conditions: 1 mM glutamate and 10 μM glycine
Method: FIGURE 7 Concentration–response properties of compound 6 on GluN1/GluN2A-D receptors. (A) Examples of traces obtained from HEK293 cells transfected with cDNAs encoding GluN1/GluN2A, GluN1/GluN2B, GluN1/GluN2C, and GluN1/GluN2D receptors. Agonists (1 mM glutamate and 10 μM glycine) were applied alone and simultaneously with compound 6 (10 μM) to evaluate the inhibitory effect of compound 6 on NMDAR mediated currents (duration of glutamate and steroid application is indicated by filled and open bars, respectively). (B) Concentration–response curves for the compound 6 effect at GluN1/GluN2A-D receptors. Data points are averaged values of normalized responses from at least four HEK293 cells. Error bars represent SD.
Electrophysiological experiments were performed on HEK293 cells transfected with plasmids encoding rat GluN1-1a/GluN2A-D and GFP genes as described previously, ([Petrovic et al., 2005]; [Cais et al., 2008]; [Korinek et al., 2010]) or on primary hippocampal neurons prepared from P0–P1 rats, plated on collagen/poly-D-lysine-coated glass coverslips at a density of ∼50,000 cells/cm^2, and grown in Neurobasal A medium with B27 Supplement (Gibco). Agonist-induced responses were voltage-clamped at a holding potential of −60 mV. […] Agonist-induced responses were low-pass filtered at 2 kHz, digitally sampled at 5 kHz, and analyzed with pClamp software version 10.5 (Molecular Devices). […]

T1 sequence (Q00961 20-1237, other chains not shown): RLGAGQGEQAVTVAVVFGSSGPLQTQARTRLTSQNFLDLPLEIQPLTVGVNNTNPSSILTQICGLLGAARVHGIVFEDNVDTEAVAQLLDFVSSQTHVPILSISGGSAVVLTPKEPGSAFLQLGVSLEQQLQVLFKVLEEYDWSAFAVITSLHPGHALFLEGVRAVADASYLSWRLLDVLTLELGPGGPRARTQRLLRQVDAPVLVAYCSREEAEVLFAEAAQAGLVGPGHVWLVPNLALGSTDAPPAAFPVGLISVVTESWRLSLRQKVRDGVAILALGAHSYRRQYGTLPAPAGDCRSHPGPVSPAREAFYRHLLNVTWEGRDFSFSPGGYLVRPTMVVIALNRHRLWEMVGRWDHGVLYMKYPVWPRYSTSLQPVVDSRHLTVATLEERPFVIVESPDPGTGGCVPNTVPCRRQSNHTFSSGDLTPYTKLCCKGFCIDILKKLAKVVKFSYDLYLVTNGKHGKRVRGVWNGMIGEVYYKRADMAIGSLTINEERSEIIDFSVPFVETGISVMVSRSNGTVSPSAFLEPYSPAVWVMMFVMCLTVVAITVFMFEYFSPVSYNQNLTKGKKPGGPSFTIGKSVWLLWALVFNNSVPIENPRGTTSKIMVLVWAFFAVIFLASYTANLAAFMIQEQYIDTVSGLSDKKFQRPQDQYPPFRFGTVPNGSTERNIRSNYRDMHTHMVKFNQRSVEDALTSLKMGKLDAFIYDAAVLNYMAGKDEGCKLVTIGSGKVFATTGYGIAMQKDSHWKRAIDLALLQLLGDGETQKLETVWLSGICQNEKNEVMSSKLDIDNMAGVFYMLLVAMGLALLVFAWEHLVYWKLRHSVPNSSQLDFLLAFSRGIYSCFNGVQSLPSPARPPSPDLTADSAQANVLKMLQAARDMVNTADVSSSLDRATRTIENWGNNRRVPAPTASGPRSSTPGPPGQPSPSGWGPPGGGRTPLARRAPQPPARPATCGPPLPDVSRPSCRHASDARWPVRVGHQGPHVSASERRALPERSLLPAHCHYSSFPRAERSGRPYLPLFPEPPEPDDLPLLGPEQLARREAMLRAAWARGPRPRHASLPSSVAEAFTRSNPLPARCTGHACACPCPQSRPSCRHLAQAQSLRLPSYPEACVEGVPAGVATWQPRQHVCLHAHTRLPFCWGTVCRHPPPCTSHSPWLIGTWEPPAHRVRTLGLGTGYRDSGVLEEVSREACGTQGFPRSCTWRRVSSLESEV

In the case of `C[C@@]12CCC[C@H]1[C@@H]1CC[C@@H]3C[C@H](NC(=O)[C@@H](N)CC(=O)O)CC[C@]3(C)[C@H]1CC2` [Compound 6, (S)-3-amino-4-(((3R,5R,8S,9S,10S,13S,14S)-10,13-dimethylhexadecahydro-1H-cyclopenta[a]phenanthren-3-yl)amino)-4-oxobutanoic acid], the “h ± SD (apparent Hill coefficient)” value is reported as 1.6 ± 0.3 and the IC50 (concentration-response) is reported as 7.3 ± 0.8 µM.

Reference: article PMC6240685, “Strong Inhibitory Effect, Low Cytotoxicity and High Plasma Stability of Steroidal Inhibitors of N-Methyl-D-Aspartate Receptors With C-3 Amide Structural Motif” (Frontiers in Pharmacology, 2018)
